A word on the MIC: it is the smallest concentration in the dilution series that meets the test's criterion for growth inhibition. The IC50 is the midpoint of a concentration-inhibition curve.

Holding throughout (format): functional
One assay relates to Klebsiella aerogenes. Briefly: Antibacterial activity against Enterobacter aerogenes ATCC 13048 assessed as bacterial growth inhibition incubated over night by two-fold serial dilution method.
Assay [1] has as its system Staphylococcus aureus. Briefly: Antibacterial activity against Staphylococcus aureus NCTC 8325 assessed as bacterial growth inhibition incubated over night by two-fold serial dilution method.
Assay [2] deals with Escherichia coli. Put plainly: Antibacterial activity against Escherichia coli ATCC 25922 assessed as bacterial growth inhibition incubated over night by two-fold serial dilution method.
For the next assay, the system named is Klebsiella pneumoniae. Put plainly: Antibacterial activity against Klebsiella pneumoniae ATCC 12657 assessed as bacterial growth inhibition incubated over night by two-fold serial dilution method.
Assay [3] relates to Staphylococcus aureus. Briefly: Antibacterial activity against Staphylococcus aureus ATCC 29213 assessed as bacterial growth inhibition incubated over night by two-fold serial dilution method.
In the next assay the test system is HeLa. Briefly: Cytotoxicity against human HeLa cells assessed as reduction in cell viability after 24 hrs by resazurin dye based assay. A general note: Alamar Blue is a resazurin reagent that responds to reducing activity.
Another assay deals with Candida albicans. Put plainly: Antifungal activity against Candida albicans Tu01 assessed as fungal growth inhibition incubated for 48 hrs by broth microdilution method. (In general: In broth dilution the organism is exposed to a series of concentrations in liquid medium.)
For a further assay, the system named is Pseudomonas aeruginosa. Briefly: Antibacterial activity against Pseudomonas aeruginosa ATCC 27853 assessed as bacterial growth inhibition incubated over night by two-fold serial dilution method.
The next assay deals with Enterococcus faecium. Briefly: Antibacterial activity against Enterococcus faecium BM4147-1 assessed as bacterial growth inhibition incubated over night by two-fold serial dilution method.
In a further assay the test system is Acinetobacter baumannii. Briefly: Antibacterial activity against Acinetobacter baumannii 09987 assessed as bacterial growth inhibition incubated over night by two-fold serial dilution method.
The subject of another assay is Nakaseomyces glabratus. Briefly: Antifungal activity against Candida glabrata Tu04 assessed as fungal growth inhibition incubated for 48 hrs by broth microdilution method.
The test system of assay [4] is Mycolicibacterium smegmatis. Put plainly: Antibacterial activity against Mycobacterium smegmatis mc2 155 assessed as bacterial growth inhibition incubated over night by two-fold serial dilution method.
For another assay, the system named is Bacillus subtilis. Put plainly: Antibacterial activity against Bacillus subtilis 168 assessed as bacterial growth inhibition incubated over night by two-fold serial dilution method.
The test system of assay [5] is Mycobacterium tuberculosis. Put plainly: Antitubercular activity against Mycobacterium tuberculosis H37Rv ATCC 25618 assessed as bacterial growth inhibition incubated for 7 days by resazurin microtiter assay. Particulars: H37Rv ATCC 25618, 168 h, time 7 day.
For assay [6], the system named is Escherichia coli. Briefly: Antimicrobial activity against Escherichia coli MRE600 assessed as inhibition of translation using luciferin as substrate incubated for 2 hrs by chemiluminescence based cell free assay. The settings on record: MRE600, 2 h.

In brackets after ≈: the same amount, converted by molar mass. Where only a bound is given, the exact number is not on record here.

Regarding `CC(C)CC(=O)Nc1ccn([C@H]2CC[C@H](O)[C@@H](C)O2)c(=O)n1`, the MIC in the assay on Klebsiella aerogenes, in the assay with Staphylococcus aureus [1], in the assay on Escherichia coli [2], in the assay on Klebsiella pneumoniae, with Staphylococcus aureus [3] and in the assay on Candida albicans was over 32 µg/mL throughout. Besides, the MIC (in the assay with Pseudomonas aeruginosa; with Enterococcus faecium; with Acinetobacter baumannii; with Nakaseomyces glabratus; in [4]; with Bacillus subtilis) was over 32 µg/mL throughout. The IC50 in the assay with HeLa is over 64 µg/mL.

Regarding `C[C@H]1O[C@H](O[C@H]2CC[C@H](n3ccc(NC(=O)c4ccc(N)c(F)c4)nc3=O)O[C@@H]2C)[C@H](O)[C@@H](O)[C@@H]1N(C)C`, the MIC with Klebsiella aerogenes, in the assay with Staphylococcus aureus [1], in the assay on Escherichia coli [2], in the assay with Klebsiella pneumoniae, in the assay on Staphylococcus aureus [3] and in the assay on Candida albicans was over 32 µg/mL each time. For the same compound, the MIC in the assay with Pseudomonas aeruginosa, in the assay on Enterococcus faecium, in the assay with Acinetobacter baumannii, in the assay with Nakaseomyces glabratus and with Bacillus subtilis was over 32 µg/mL throughout. Besides, the IC50 in the assay on HeLa was over 64 µg/mL.

Take `CC(=O)C(C)Nc1ccc(C(=O)Nc2ccn([C@H]3CC[C@H](O[C@H]4O[C@H](C)[C@@H](N(C)C)[C@H](O)[C@H]4O)[C@@H](C)O3)c(=O)n2)cc1` (stereo not given in full): the MIC in the assay on Klebsiella aerogenes, in the assay on Staphylococcus aureus [1], with Escherichia coli [2], in the assay with Klebsiella pneumoniae, in the assay with Staphylococcus aureus [3] and with Candida albicans was over 32 µg/mL each time. For the same compound, the MIC in the assay on Pseudomonas aeruginosa is over 32 µg/mL; with Enterococcus faecium, over 32 µg/mL; in the assay with Acinetobacter baumannii it was over 32 µg/mL; in the assay on Nakaseomyces glabratus it was over 32 µg/mL; in assay [4] it was 2 µg/mL (≈ 3.4 µM); in the assay on Bacillus subtilis it was over 32 µg/mL. Besides, the MIC95 in assay [5] stood at 32 µM (≈ 18.8 µg/mL). For the same compound, the IC50 in the assay on HeLa amounted to 16 µg/mL (≈ 27.2 µM); in the assay on Escherichia coli [6] it was 13 µg/mL (≈ 22.1 µM).

For `CS/C=C/C(=O)Nc1ccn([C@H]2CC[C@H](O[C@H]3O[C@H](C)[C@@H](N(C)C)[C@H](O)[C@H]3O)[C@@H](C)O2)c(=O)n1`, the MIC was over 32 µg/mL in the assay on Klebsiella aerogenes; 16 µg/mL (≈ 32.1 µM) in the assay with Staphylococcus aureus [1]; over 32 µg/mL in the assay with Escherichia coli [2]; over 32 µg/mL in the assay on Klebsiella pneumoniae; 16 µg/mL (≈ 32.1 µM) in the assay on Staphylococcus aureus [3]; over 32 µg/mL in the assay with Candida albicans. The MIC was over 32 µg/mL in the assay with Pseudomonas aeruginosa; over 32 µg/mL in the assay on Enterococcus faecium; over 32 µg/mL in the assay with Acinetobacter baumannii; over 32 µg/mL in the assay with Nakaseomyces glabratus; 4 µg/mL (≈ 8.02 µM) in [4]; 8 µg/mL (≈ 16 µM) in the assay with Bacillus subtilis. Moreover, the MIC95 in assay [5] was 8 µM (≈ 3.99 µg/mL). Moreover, the IC50 with HeLa and with Escherichia coli [6] was 1 µg/mL (≈ 2.01 µM) each time.

Consider `CC(C)=CC(=O)Nc1ccn([C@H]2CC[C@H](O[C@H]3O[C@H](C)[C@@H](N(C)C)[C@H](O)[C@H]3O)[C@@H](C)O2)c(=O)n1`, for which the MIC in the assay on Klebsiella aerogenes, in the assay on Staphylococcus aureus [1], with Escherichia coli [2], in the assay with Klebsiella pneumoniae, in the assay with Staphylococcus aureus [3] and in the assay with Candida albicans was over 32 µg/mL in each case. Further, the MIC is over 32 µg/mL with Pseudomonas aeruginosa; over 32 µg/mL in the assay on Enterococcus faecium; over 32 µg/mL with Acinetobacter baumannii; over 32 µg/mL in the assay with Nakaseomyces glabratus; 4 µg/mL (≈ 8.32 µM) in assay [4]; 32 µg/mL (≈ 66.6 µM) with Bacillus subtilis. For the same compound, the MIC95 in assay [5] is 32 µM (≈ 15.4 µg/mL). For the same compound, the half-maximal inhibitory concentration (IC50) is 2 µg/mL (≈ 4.16 µM) with HeLa and 1.6 µg/mL (≈ 3.33 µM) with Escherichia coli [6].

Regarding `CC[C@H](C)C(=O)Nc1ccn([C@H]2CC[C@H](O)[C@@H](C)O2)c(=O)n1`, the MIC in the assay with Klebsiella aerogenes, in the assay with Staphylococcus aureus [1], with Escherichia coli [2], in the assay with Klebsiella pneumoniae, with Staphylococcus aureus [3] and with Candida albicans was over 32 µg/mL throughout. Further, the MIC (with Pseudomonas aeruginosa; in the assay with Enterococcus faecium; with Acinetobacter baumannii; with Nakaseomyces glabratus; in [4]; with Bacillus subtilis) was over 32 µg/mL each time. In the assay on HeLa, the IC50 was over 64 µg/mL.

Turning to `CC[C@H](C)CCC(=O)Nc1ccn([C@H]2CC[C@H](O[C@H]3O[C@H](C)[C@@H](N(C)C)[C@H](O)[C@H]3O)[C@@H](C)O2)c(=O)n1`, the MIC in the assay on Klebsiella aerogenes, in the assay with Staphylococcus aureus [1], in the assay on Escherichia coli [2], in the assay with Klebsiella pneumoniae, in the assay on Staphylococcus aureus [3] and with Candida albicans was over 32 µg/mL throughout. The MIC in the assay with Pseudomonas aeruginosa is over 32 µg/mL; in the assay with Enterococcus faecium, over 32 µg/mL; in the assay on Acinetobacter baumannii, over 32 µg/mL; in the assay with Nakaseomyces glabratus, over 32 µg/mL; in assay [4], 16 µg/mL (≈ 31.3 µM); with Bacillus subtilis it was over 32 µg/mL. Further, the IC50 with HeLa is over 64 µg/mL; with Escherichia coli [6], 9.5 µg/mL (≈ 18.6 µM).

With `C[C@H]1O[C@H](O[C@H]2CC[C@H](n3ccc(NC(=O)c4ccc(N)cc4)nc3=O)O[C@@H]2C)[C@H](O)[C@@H](O)[C@@H]1N(C)C`, the MIC in the assay on Klebsiella aerogenes, in the assay with Staphylococcus aureus [1], in the assay on Escherichia coli [2], in the assay with Klebsiella pneumoniae, in the assay with Staphylococcus aureus [3] and in the assay with Candida albicans was over 32 µg/mL throughout. Besides, the MIC in the assay on Pseudomonas aeruginosa is over 32 µg/mL; in the assay with Enterococcus faecium it was over 32 µg/mL; with Acinetobacter baumannii it was over 32 µg/mL; with Nakaseomyces glabratus, over 32 µg/mL; in [4] it was 2 µg/mL (≈ 3.86 µM); in the assay on Bacillus subtilis, 32 µg/mL (≈ 61.8 µM). For the same compound, the MIC95 in assay [5] stood at 16 µM (≈ 8.28 µg/mL). Further, the figures for the IC50 in the assay with HeLa and in the assay on Escherichia coli [6] were 16 µg/mL (≈ 30.9 µM) and 12 µg/mL (≈ 23.2 µM), respectively.

For the compound `CC(C)=CC(=O)Nc1ccn([C@H]2CC[C@H](O)[C@@H](C)O2)c(=O)n1`, the MIC in the assay with Klebsiella aerogenes, with Staphylococcus aureus [1], in the assay on Escherichia coli [2], with Klebsiella pneumoniae, in the assay on Staphylococcus aureus [3] and in the assay on Candida albicans was over 32 µg/mL in each case. The MIC (in the assay on Pseudomonas aeruginosa; in the assay on Enterococcus faecium; in the assay on Acinetobacter baumannii; in the assay on Nakaseomyces glabratus; in assay [4]; in the assay with Bacillus subtilis) was over 32 µg/mL throughout. Also, the IC50 in the assay with HeLa was over 64 µg/mL.
